System: medulloblastoma D384 cells
Assay: exoDNA yield in microvesicles after inhibition of DNA replication with L-mimosine
Format: cell-based, human
Details: D384 cells treated with L-mimosine (200, 400 and 600 μM), microvesicles isolated from medium after 48 hrs, ssDNA yield compared to mock treated cells
Procedure: D384 cells were seeded in 6-well plates and treated with increasing dosages of L-mimosine (200, 400 and 600 μM) or mock treated. Microvesicles were isolated from the medium after 48 hrs and ssDNA was extracted using the Qiagen PCR purification kit. Single-stranded DNA yields were quantified using the Bioanalyzer and the yields were compared to mock treated cells (normalized to 1.0).
We used L-mimosine to inhibit DNA replication and examined whether the inhibition affected the yield of exoDNA. If the exoDNA yield is decreased after inhibition, it is very likely that exoDNA may contain fragments of genomic DNA.
Specifically, D384 cells were plated on 6-well plates (2×10^6 cells/well) and treated with increasing amounts (200, 400 and 600 μM) of L-mimosine (Sigma-Aldrich, St. Louis, Mo.) which is an inhibitor of DNA replication. The drug was added at one time point and 48 hrs after, the media was collected and processed for the isolation of microvesicles. Cell viability was assessed by cell count using the Countess Automated Cell Counter (Invitogen). SsDNA yields are normalized to one.

N[C@@H](Cn1ccc(=O)c(O)c1)C(=O)O [L-mimosine]
decrease of exoDNA yield in microvesicles: about 50%
